The source of these data is ChEMBL document CHEMBL6083281, “Development of a Fluorescence Probe for High-Throughput Screening of Allosteric Inhibitors Targeting TRAP1” (J Med Chem, 2024).

In assay [1] the test system is HeLa. As to the kind of experiment: Cytotoxicity against human HeLa cells assessed as reduction in cell viability incubated for 24 hrs by MTT assay. In general terms: Formazan colour is commonly taken as a measure of viable cells.
Assay [2] relates to CWR22R. As to the kind of experiment: Cytotoxicity against human 22Rv1 cells assessed as reduction in cell viability incubated for 24 hrs by MTT assay. To be noted: 22Rv1, 24 h.
Assay [3] concerns the target T1, Heat shock protein 75 kDa, mitochondrial (Homo sapiens, UniProt Q12931).
T1 sequence (Q12931 whole entry): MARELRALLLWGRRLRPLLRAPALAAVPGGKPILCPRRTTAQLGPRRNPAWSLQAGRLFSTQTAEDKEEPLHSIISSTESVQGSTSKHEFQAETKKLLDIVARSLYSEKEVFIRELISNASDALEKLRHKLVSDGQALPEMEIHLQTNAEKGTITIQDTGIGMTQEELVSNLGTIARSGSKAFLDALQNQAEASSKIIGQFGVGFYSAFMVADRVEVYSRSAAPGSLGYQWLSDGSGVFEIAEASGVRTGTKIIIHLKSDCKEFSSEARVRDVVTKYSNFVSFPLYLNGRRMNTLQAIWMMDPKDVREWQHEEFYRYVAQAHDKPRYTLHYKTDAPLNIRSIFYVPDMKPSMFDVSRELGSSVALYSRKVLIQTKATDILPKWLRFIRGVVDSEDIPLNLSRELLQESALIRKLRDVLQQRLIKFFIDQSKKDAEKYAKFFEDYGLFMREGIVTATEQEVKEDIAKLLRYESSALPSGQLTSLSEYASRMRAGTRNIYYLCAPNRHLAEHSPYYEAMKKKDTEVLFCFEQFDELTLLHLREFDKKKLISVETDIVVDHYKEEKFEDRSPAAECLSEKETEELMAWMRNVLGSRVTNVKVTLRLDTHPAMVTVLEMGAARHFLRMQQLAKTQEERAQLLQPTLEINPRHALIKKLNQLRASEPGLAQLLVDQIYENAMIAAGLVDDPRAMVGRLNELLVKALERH

For assay [4], the target named is T1, Heat shock protein 75 kDa, mitochondrial. In words: Binding affinity to TRAP1 (unknown origin) assessed as dissociation constant incubated for 15 mins by MST analysis.
The target in assay [5] is Heat shock protein 75 kDa, mitochondrial (Homo sapiens, UniProt Q12931, F353A/F531A).
Chain of Heat shock protein 75 kDa, mitochondrial (Homo sapiens, UniProt Q12931, F353A/F531A) (Q12931 60-704 F353A/F531A limits assumed): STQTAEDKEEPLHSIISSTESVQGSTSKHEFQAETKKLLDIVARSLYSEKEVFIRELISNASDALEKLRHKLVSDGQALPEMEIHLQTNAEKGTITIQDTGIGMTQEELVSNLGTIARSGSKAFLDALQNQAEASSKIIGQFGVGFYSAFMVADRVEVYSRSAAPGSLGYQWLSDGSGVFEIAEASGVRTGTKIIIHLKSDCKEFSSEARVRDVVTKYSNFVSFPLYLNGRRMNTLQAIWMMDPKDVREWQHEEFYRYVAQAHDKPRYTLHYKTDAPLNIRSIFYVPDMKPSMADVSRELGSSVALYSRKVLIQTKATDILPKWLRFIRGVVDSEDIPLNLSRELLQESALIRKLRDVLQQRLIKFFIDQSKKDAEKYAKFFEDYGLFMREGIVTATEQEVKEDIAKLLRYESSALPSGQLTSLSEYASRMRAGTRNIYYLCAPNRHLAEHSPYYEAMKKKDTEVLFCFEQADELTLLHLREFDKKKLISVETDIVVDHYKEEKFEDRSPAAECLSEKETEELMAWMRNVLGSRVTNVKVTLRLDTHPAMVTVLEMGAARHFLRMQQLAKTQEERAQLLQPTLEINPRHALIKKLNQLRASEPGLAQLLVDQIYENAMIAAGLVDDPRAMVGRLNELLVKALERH
Assay [6] deals with T1, Heat shock protein 75 kDa, mitochondrial. This is another data set of the same source.
Description: Binding affinity to N-terminal 6Hits-tagged/TEV-fused human wildtype TRAP1 extracted from Escherichia coli BL21 (DE3) cells assessed as dissociation constant incubated for 2 hrs by fluorescence polarization assay
Assay [7] shares this target. In words: Binding affinity to TRAP1 (unknown origin) assessed as dissociation constant by MST analysis.

As a reminder, the IC50 is the concentration needed to halve the response being measured. What is called Kd is a measure of binding affinity in units of concentration.

For `O=C(CCCCCCCCC[P+](c1ccccc1)(c1ccccc1)c1ccccc1)Oc1ccc(-c2cc(=S)ss2)cc1`, the IC50 in assay [1] is over 20 µM; in assay [2] it was over 20 µM; in assay [3] it was 8.94 µM.
`COc1cc(C)c(CCCCCCCCCC[P+](c2ccccc2)(c2ccccc2)c2ccccc2)cc1OC`: the IC50 in assay [1] amounted to 3.21 µM; in assay [2], 0.502 µM; in assay [3], 3.8 µM.
For `O=C(C/C(=C/c1ccccc1)C[P+](c1ccccc1)(c1ccccc1)c1ccccc1)C/C(=C\c1ccccc1)C[P+](c1ccccc1)(c1ccccc1)c1ccccc1`, the IC50 in assay [1] is over 20 µM; in assay [2], 17.4 µM; in assay [3], over 20 µM.
`Cc1c(C)c2c(c(C)c1O)CCC(C)(CCCCCCCCCC[P+](c1ccccc1)(c1ccccc1)c1ccccc1)O2` (stereo not given): the IC50 was 1.45 µM in assay [1], 0.183 µM in assay [2] and 8.42 µM in assay [3].
`COc1cc(COC(=O)CCCCC[P+](c2ccccc2)(c2ccccc2)c2ccccc2)c(OC)c2c1OCO2`: the 50% inhibitory concentration (IC50) was over 20 µM in assay [1], 18.3 µM in assay [2] and over 20 µM in assay [3].
Take `c1ccc([P+](Cc2c3ccccc3c(C[P+](c3ccccc3)(c3ccccc3)c3ccccc3)c3ccccc23)(c2ccccc2)c2ccccc2)cc1`: the figures for the concentration for half-maximal inhibition (IC50) in assay [1], in assay [2] and in assay [3] were over 20 µM, over 20 µM and 9.96 µM, respectively.
For the compound `Cc1c(C)c2c(c(C)c1O)CCC(C)(CC[P+](c1ccccc1)(c1ccccc1)c1ccccc1)O2` (stereo not given), the concentration for half-maximal inhibition (IC50) in assay [1] is over 20 µM; in assay [2], 17.4 µM; in assay [3] it was over 20 µM.
As to `O=C(c1ccccc1)C(O)(CCC[P+](c1ccccc1)(c1ccccc1)c1ccccc1)c1ccccc1` (stereo not given), the results for the concentration for half-maximal inhibition (IC50) in assay [1], in assay [2] and in assay [3] were 17.6 µM, 3.49 µM and over 20 µM, respectively.
Turning to `CN(C)CCOc1ccc(/C(=C(/CCCCCCCCCC[P+](c2ccccc2)(c2ccccc2)c2ccccc2)c2ccccc2)c2ccccc2)cc1`, the IC50 in assay [1] was 0.94 µM; in assay [2], 0.62 µM; in assay [3] it was 2.53 µM. Also, the Kd was found to be 4.41 µM in assay [4] and 28 µM in assay [5].
In assay [6], `CN(CCCCCC[P+](c1ccccc1)(c1ccccc1)c1ccccc1)C(=O)c1ccccc1C1=c2cc3c4c(c2Oc2c1cc1c5c2CCCN5CCC1)CCC[N+]=4CCC3` registered a Kd of 1.52 µM.
On to `COc1c(C)c(CCCCCCCCCC[P+](c2ccccc2)(c2ccccc2)c2ccccc2)c(OC)c(OC)c1OC`, for which the IC50 in assay [1] was found to be 1.65 µM; in assay [2], 0.385 µM; in assay [3], 3.77 µM.
In the case of `CC1(C)CC(C(=O)OCCCCCCCCCC[P+](c2ccccc2)(c2ccccc2)c2ccccc2)C(C)(C)N1O` (stereo not given), the IC50 in assay [1] worked out at 5.15 µM; in assay [2], 0.601 µM; in assay [3], 4.75 µM.
In the case of `CCN(CC)c1ccc2c(-c3ccccc3C(=O)N(C)CCCCCC[P+](c3ccccc3)(c3ccccc3)c3ccccc3)c3ccc(=[N+](CC)CC)cc-3oc2c1`, in assay [6], the Kd came out at 0.81 µM.
Take `COC1=C(OC)C(=O)C(C[P+](c2ccccc2)(c2ccccc2)c2ccccc2)=C(C)C1=O`: the IC50 in assay [1] is over 20 µM; in assay [2] it was 16.3 µM; in assay [3], over 20 µM.
`CCN(CC)c1ccc2c(-c3ccccc3C(=O)N(C)CCCCCCCC[P+](c3ccccc3)(c3ccccc3)c3ccccc3)c3ccc(=[N+](CC)CC)cc-3oc2c1` yielded a Kd in assay [6] of 2.19 µM.
As to `CC1(C)CC(C(=O)OCC[P+](c2ccccc2)(c2ccccc2)c2ccccc2)C(C)(C)N1O` (stereo not given), the IC50 in assay [1], in assay [2] and in assay [3] was over 20 µM each time.
Turning to `COc1c(Br)c(C)c(CCCCCCCCCC[P+](c2ccccc2)(c2ccccc2)c2ccccc2)c(OC)c1OC`, the IC50 came out at 1.61 µM in assay [1], 0.37 µM in assay [2] and 4.07 µM in assay [3].
Regarding `O=C(CCCCCCCCCC[P+](c1ccccc1)(c1ccccc1)c1ccccc1)Nc1nccs1`, the IC50 was 6.38 µM in assay [1], 2.25 µM in assay [2] and 14.1 µM in assay [3].
Take `CC(C)(C)[Si](C)(C)O[C@H]1CC[C@]2(C)[C@H]1[C@H]2CCC[P+](c1ccccc1)(c1ccccc1)c1ccccc1`: the IC50 turned out to be 1.67 µM in assay [1], 0.86 µM in assay [2] and 8.05 µM in assay [3].
`CN(CCCCCCCC[P+](c1ccccc1)(c1ccccc1)c1ccccc1)C(=O)c1ccccc1C1=c2cc3c4c(c2Oc2c1cc1c5c2CCCN5CCC1)CCC[N+]=4CCC3`: the results for the Kd in assay [4], in assay [6] and in assay [5] were 0.37 µM, 0.27 µM and 5.21 µM, respectively.
With `COC1=C(OC)C(=O)C(CCCCCCCCCC[P+](c2ccccc2)(c2ccccc2)c2ccccc2)=C(C)C1=O` [MITOQUINONE CATION], the concentration for half-maximal inhibition (IC50) in assay [1] turned out to be 4.3 µM; in assay [2], 0.597 µM; in assay [3], 5.2 µM. The Kd in assay [7] worked out at 6.6 µM.
